How the values were obtained:
XIAP BIR2-3 = biological target: T1, XIAP BIR2-3 (Homo sapiens, UniProt P98170, C202A/C213G); assay: XIAP-BIR2-3 dimeric SMAC Peptide Homogeneous Time Resolved Fluorescence (HTRF) Assay; format: binding; settings: 0.5 nM N-His-BIR2-3 (125-356, C202A/C213G, XIAP), 20 nM fluorescein labeled dimeric SMAC peptide; HTRF signal; read-out: XIAP BIR2-3 IC50
T1 construct: His-BIR2-3 (125-356, C202A/C213G, XIAP)
Procedure: B. […] Assays were performed in black, flat-bottom, 384-well plates. […] Compounds were dissolved at 3 mM in dimethylsulfoxide (DMSO) and evaluated at eleven serially diluted concentrations. IC50 and Ki values were derived by non-linear regression analysis.

XIAP BIR3 = biological target: T2, XIAP BIR3 (Homo sapiens, UniProt P98170); assay: XIAP-BIR3/SMAC Homogeneous Time Resolved Fluorescence (HTRF) Assay; format: binding; settings: 1 nM N-His-BIR3 (241-356, XIAP), 5 nM fluorescein labeled SMAC peptide; HTRF signal; read-out: XIAP BIR3 IC50
T2 construct: His-BIR3 (241-356, XIAP)
T2 sequence (P98170 241-356): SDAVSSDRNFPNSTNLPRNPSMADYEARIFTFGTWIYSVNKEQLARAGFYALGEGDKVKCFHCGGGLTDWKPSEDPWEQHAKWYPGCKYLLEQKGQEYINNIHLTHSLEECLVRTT
Procedure, shortened: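 Competition HTRF between XIAP-BIR3 and SMAC; reaction 60 min at room temperature, then anti-6×His-terbium Fab detection for a further 30 min.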

T1 sequence (P98170 125-356 C202A/C213G): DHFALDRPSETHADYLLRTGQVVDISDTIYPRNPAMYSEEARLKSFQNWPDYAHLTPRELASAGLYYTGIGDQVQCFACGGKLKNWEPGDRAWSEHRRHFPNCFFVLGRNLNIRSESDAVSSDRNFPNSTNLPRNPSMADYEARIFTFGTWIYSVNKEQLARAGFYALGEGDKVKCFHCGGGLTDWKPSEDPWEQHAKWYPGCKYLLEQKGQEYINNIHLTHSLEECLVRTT

Row | Structure (SMILES) | IC50 (XIAP BIR2-3) [nM] | IC50 (XIAP BIR3) [nM]
1 | CN[C@@H](C)C(=O)N[C@H](C(=O)N1C[C@@H](c2ccc3c(c2)CN(C(=O)[C@@H](NC(=O)[C@H](C)NC)C(C)(C)C)[C@H](C(=O)N[C@@H]2CCOc4ccccc42)C3)C[C@H]1C(=O)N[C@@H]1CCCc2ccccc21)C(C)(C)C [Example 33, (S)—N—((R)—Chroman-4-yl)-2-((S)-3,3-dimethyl-2-((S)-2-(methylamino)propanamido)butanoyl)-7-((3R,5S)-1-((S)-3,3-dimethyl-2-((S)-2-(methylamino)propanamido)butanoyl)-5-(((R)-1,2,3,4-tetrahydronaphthalen-1-yl)carbamoyl)pyrrolidin-3-yl)-1,2,3,4-tetrahydroisoquinoline-3-carboxamide] | 1.7 | 1.8
2 | CN[C@@H](C)C(=O)N[C@H](C(=O)N1Cc2cc([C@H]3C[C@@H](C(=O)N[C@@H]4CCCc5ccccc54)N(C(=O)[C@@H](NC(=O)[C@H](C)NC)C(C)(C)C)C3)ccc2C[C@H]1C(=O)N[C@H](CO)Cc1ccccc1)C(C)(C)C [Example 34, (S)-2-((S)-3,3-Dimethyl-2-((S)-2-(methylamino)propanamido)butanoyl)-7-((3R,5S)-1-((S)-3,3-dimethyl-2-((S)-2-(methylamino)propanamido)butanoyl)-5-(((R)-1,2,3,4-tetrahydronaphthalen-1-yl)carbamoyl)pyrrolidin-3-yl)-N-((S)-1-hydroxy-3-phenylpropan-2-yl)-1,2,3,4-tetrahydroisoquinoline-3-carboxamide] | 7 | 4.8
3 | CN[C@@H](C)C(=O)N[C@H](C(=O)N1Cc2cc([C@H]3C[C@@H](C(=O)N[C@@H]4CCCc5ccccc54)N(C(=O)[C@@H](NC(=O)[C@H](C)NC)C(C)(C)C)C3)ccc2C[C@H]1C(=O)N[C@H](CO)c1ccccc1F)C(C)(C)C [Example 35, (S)-2-((S)-3,3-Dimethyl-2-((S)-2-(methylamino)propanamido)butanoyl)-7-((3R,5S)-1-((S)-3,3-dimethyl-2-((S)-2-(methylamino)propanamido)butanoyl)-5-(((R)-1,2,3,4-tetrahydronaphthalen-1-yl)carbamoyl)pyrrolidin-3-yl)-N-((S)-1-(2-fluorophenyl)-2-hydroxyethyl)-1,2,3,4-tetrahydroisoquinoline-3-carboxamide] | 1.3 | 2.5
4 | CN[C@@H](C)C(=O)N[C@H](C(=O)N1Cc2cc([C@H]3C[C@@H](C(=O)N[C@@H]4CCCc5ccccc54)N(C(=O)[C@@H](NC(=O)[C@H](C)NC)C(C)(C)C)C3)ccc2C[C@H]1C(=O)N[C@@H](CO)c1ccccc1F)C(C)(C)C [Example 36, (S)-2-((S)-3,3-Dimethyl-2-((S)-2-(methylamino)propanamido)butanoyl)-7-((3R,5S)-1-((S)-3,3-dimethyl-2-((S)-2-(methylamino)propanamido)butanoyl)-5-(((R)-1,2,3,4-tetrahydronaphthalen-1-yl)carbamoyl)pyrrolidin-3-yl)-N-((R)-1-(2-fluorophenyl)-2-hydroxyethyl)-1,2,3,4-tetrahydroisoquinoline-3-carboxamide] | 1.7 | 3.3
5 | CN[C@@H](C)C(=O)N[C@H](C(=O)N1Cc2cc([C@H]3C[C@@H](C(=O)N[C@@H]4CCCc5ccccc54)N(C(=O)[C@@H](NC(=O)[C@H](C)NC)C(C)(C)C)C3)ccc2C[C@H]1C(=O)N[C@@H]1CCCc2cc(OC)ccc21)C(C)(C)C [Example 37, (S)-2-((S)-3,3-Dimethyl-2-((S)-2-(methylamino)propanamido)butanoyl)-7-((3R,5S)-1-((S)-3,3-dimethyl-2-((S)-2-(methylamino)propanamido)butanoyl)-5-(((R)-1,2,3,4-tetrahydronaphthalen-1-yl)carbamoyl)pyrrolidin-3-yl)-N-((R)-6-methoxy-1,2,3,4-tetrahydronaphthalen-1-yl)-1,2,3,4-tetrahydroisoquinoline-3-carboxamide] | 1.8 | 2.9
6 | CN[C@@H](C)C(=O)N[C@H](C(=O)N1Cc2cc([C@H]3C[C@@H](C(=O)N[C@@H]4CCCc5ccccc54)N(C(=O)[C@@H](NC(=O)[C@H](C)NC)C(C)(C)C)C3)ccc2C[C@H]1C(=O)Nc1cc(C)nn1-c1ccccc1)C(C)(C)C [Example 38, (S)-2-((S)-3,3-Dimethyl-2-((S)-2-(methylamino)propanamido)butanoyl)-7-((3R,5S)-1-((S)-3,3-dimethyl-2-((S)-2-(methylamino)propanamido)butanoyl)-5-(((R)-1,2,3,4-tetrahydronaphthalen-1-yl)carbamoyl)pyrrolidin-3-yl)-N-(3-methyl-1-phenyl-1H-pyrazol-5-yl)-1,2,3,4-tetrahydroisoquinoline-3-carboxamide] | 1.8 | 3.2
7 | CN[C@@H](C)C(=O)N[C@H](C(=O)N1Cc2cc([C@H]3C[C@@H](C(=O)N[C@@H]4CCCc5ccccc54)N(C(=O)[C@@H](NC(=O)[C@H](C)NC)C(C)(C)C)C3)ccc2C[C@H]1C(=O)N[C@H](COC)Cc1ccccc1)C(C)(C)C [Example 39, (S)-2-((S)-3,3-Dimethyl-2-((S)-2-(methylamino)propanamido)butanoyl)-7-((3R,5S)-1-((S)-3,3-dimethyl-2-((S)-2-(methylamino)propanamido)butanoyl)-5-(((R)-1,2,3,4-tetrahydronaphthalen-1-yl)carbamoyl)pyrrolidin-3-yl)-N-((S)-1-methoxy-3-phenylpropan-2-yl)-1,2,3,4-tetrahydroisoquinoline-3-carboxamide] | 5.6 | 7.2
8 | CN[C@@H](C)C(=O)N[C@H](C(=O)N1Cc2cc([C@H]3C[C@@H](C(=O)N[C@@H]4CCCc5ccccc54)N(C(=O)[C@@H](NC(=O)[C@H](C)NC)C(C)(C)C)C3)ccc2C[C@H]1C(=O)N[C@@H](Cc1ccccc1)C(=O)OC)C(C)(C)C [Example 40, (S)-Methyl 2-((S)-2-((S)-3,3-dimethyl-2-((S)-2-(methylamino)propanamido)butanoyl)-7-((3R,5S)-1-((S)-3,3-dimethyl-2-((S)-2-(methylamino)propanamido)butanoyl)-5-(((R)-1,2,3,4-tetrahydronaphthalen-1-yl)carbamoyl)pyrrolidin-3-yl)-1,2,3,4-tetrahydroisoquinoline-3-carboxamido)-3-phenylpropanoate] | 0.9 | 1.5
9 | CN[C@@H](C)C(=O)N[C@H](C(=O)N1Cc2cc([C@H]3C[C@@H](C(=O)N[C@@H]4CCCc5ccccc54)N(C(=O)[C@@H](NC(=O)[C@H](C)NC)C(C)(C)C)C3)ccc2C[C@H]1C(=O)N[C@@H](Cc1ccccc1)C(=O)O)C(C)(C)C [Example 41, (S)-2-((S)-2-((S)-3,3-Dimethyl-2-((S)-2-(methylamino)propanamido)butanoyl)-7-((3R,5S)-1-((S)-3,3-dimethyl-2-((S)-2-(methylamino)propanamido)butanoyl)-5-(((R)-1,2,3,4-tetrahydronaphthalen-1-yl)carbamoyl)pyrrolidin-3-yl)-1,2,3,4-tetrahydroisoquinoline-3-carboxamido)-3-phenylpropanoic acid] | 1.5 | 4.6
10 | CN[C@@H](C)C(=O)N[C@H](C(=O)N1Cc2cc([C@H]3C[C@@H](C(=O)N[C@@H]4CCCc5ccccc54)N(C(=O)[C@@H](NC(=O)[C@H](C)NC)C(C)(C)C)C3)ccc2C[C@H]1C(=O)N[C@@H](Cc1ccccc1)C(=O)N(C)C)C(C)(C)C [Example 42, (S)-2-((S)-3,3-Dimethyl-2-((S)-2-(methylamino)propanamido)butanoyl)-7-((3R,5S)-1-((S)-3,3-dimethyl-2-((S)-2-(methylamino)propanamido)butanoyl)-5-(((R)-1,2,3,4-tetrahydronaphthalen-1-yl)carbamoyl)pyrrolidin-3-yl)-N—((S)-1-(dimethylamino)-1-oxo-3-phenylpropan-2-yl)-1,2,3,4-tetrahydroisoquinoline-3-carboxamide] | 1.2 | 1.6
11 | CN[C@@H](C)C(=O)N[C@H](C(=O)N1Cc2cc([C@H]3C[C@@H](C(=O)N[C@@H]4CCCc5ccccc54)N(C(=O)[C@@H](NC(=O)[C@H](C)NC)C(C)(C)C)C3)ccc2C[C@H]1C(=O)N[C@@H](Cc1ccccc1)C(=O)N1CCOCC1)C(C)(C)C [Example 43, (S)-2-((S)-3,3-Dimethyl-2-((S)-2-(methylamino)propanamido)butanoyl)-7-((3R,5S)-1-((S)-3,3-dimethyl-2-((S)-2-(methylamino)propanamido)butanoyl)-5-(((R)-1,2,3,4-tetrahydronaphthalen-1-yl)carbamoyl)pyrrolidin-3-yl)-N—((S)-1-morpholino-1-oxo-3-phenylpropan-2-yl)-1,2,3,4-tetrahydroisoquinoline-3-carboxamide] | 1.3 | 2
12 | CN[C@@H](C)C(=O)N[C@H](C(=O)N1Cc2cc([C@H]3C[C@@H](C(=O)N[C@@H]4CCCc5ccccc54)N(C(=O)[C@@H](NC(=O)[C@H](C)NC)C(C)(C)C)C3)ccc2C[C@H]1C(=O)N[C@H](COCCO)Cc1ccccc1)C(C)(C)C [Example 44, (S)-2-((S)-3,3-Dimethyl-2-((S)-2-(methylamino)propanamido)butanoyl)-7-((3R,5S)-1-((S)-3,3-dimethyl-2-((S)-2-(methylamino)propanamido)butanoyl)-5-(((R)-1,2,3,4-tetrahydronaphthalen-1-yl)carbamoyl)pyrrolidin-3-yl)-N—((S)-1-(2-hydroxyethoxy)-3-phenylpropan-2-yl)-1,2,3,4-tetrahydroisoquinoline-3-carboxamide] | 17.4 | 10.3
